From US20230027026A1, “FUSED PYRIMIDINE COMPOUNDS, COMPOSITIONS AND MEDICINAL APPLICATIONS THEREOF” (JUBILANT BIOSYS LIMITED, priority 2019, published 2023)
Structures can show the parent of a compound that is named as a salt.

Experiments:
[1] = system: H1975 cells (L858R_T790M mutant); assay: H1975 proliferation assay; type: cell-based; conditions: Homo sapiens, NCI-H1975; read-out: Proliferation_Assay H1975 cells-EC50_nM L858R_T790M_mutant
[2] = system: A431 cells; assay: Cellular proliferation (Alamar Blue) assay, A431; type: cell-based; conditions: Homo sapiens, A-431; A431 cells, 72 hr, Alamar Blue; read-out: A431 IC50
In short: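 Seventy-two-hour growth assay with 3-fold compound titration (final 10–0.0005 μM) and Alamar Blue fluorescence end point, ex 540/em 590 nm.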

[3] = biological target: T1, EGFR (T790M/L858R) (Homo sapiens, UniProt P00533, L858R/T790M); assay: EGFR L858R/T790M enzyme inhibition assay (HTRF); type: biochemical; conditions: 5 μM ATP, 60 min, read-out: EGFR_L858R T790M_IC50_nM
T1 construct: GST; purchased Proqinase
Procedure: Example 2: EGFR L858R & Del19/T790M Assay Protocol (to Find the IC50 for the Compounds Using HTRF Method)
Reagents for Enzyme Assay:
• 1. Enzyme Assay Buffer: 60 mM HEPES (pH 7.4), 50 mM NaCl, 20 mM MgCl2, 5 mM MnCl2, filtered using 0.2 μm pore size, stored at 4° C. • Supplements (added fresh to the enzyme buffer): 1M DTT stock was made, 5% BSA stock and 0.1M Na3OV4 stored at 4° C. Enzyme assay buffer 50 mL, 1 M DTT 100 μL, 5% BSA 500 μL, 0.1 M Na3OV4 50 μL. • 2. GST-hEGFR (L858R), active: EGFR (T790M/L858R), active (Proqinase), 3.6 μM stock; 2.5 nM in final assay. • 3. Gastrin Precusor-Biotinylated: Gastrin precursor (Tyr87) biotinylated peptide, EEAY*GWM, Cell Signaling Tech 1310, Lot-7, Want final 0.5 μM in assay. • 4. ATP: 10 mM stock in 100 μL Enzyme assay buffer pH 7.4 prepared freshly, want 5 μM in final assay. • 5. Test compounds: Powders were dissolved in 100% DMSO and made up to a final stock concentration of 10 mM (volume in μL to add for 10 mM=mg powder X 10^5/MW). Final compound concentration in the assay plate started at 10 μM.
• 1. HTRF buffer: 50 mM Tris —HCl, pH-7.5, 100 mM NaCl, 0.1% BSA, 0.05% Tween20, 0.5 mM EDTA, filtered using 0.2 μm pore size, stored at 4° C. • Phycolink® Streptavidin-Allophycocyanin (SA-APC) Prozyme, Cat. #PJ25S, Lot #896 085, 2.06 mg/mL, APC concentration is 11.6 μM, streptavidin concentration is 15.5 μM. Want 12 nM final in assay (based on streptavidin concentration). • 2. (Europium) Eu-W1024 Anti-phosphotyrosine (PT-66) Antibody: Perkin Elmer (Product Number: AD0068), monoclonal IgG1 that recognizes phosphotyrosine peptide 100 μg/ml stock. Want 0.1 nM final in assay.
• 1. The compound dilution was made by TECAN as per the above scheme. • 2. 16 μL of diluted compound was added to the assay plate by using TECAN. • 3. 10 μL of enzyme mix was added to each well except mins. • 4. 20 μL of substrate and ATP mix were added into each well of the assay plate, manually. • 5. The plate was incubated on a laboratory shaker at room temperature for 60 min. • 6. Meanwhile, the HTRF mix was prepared and 75 μL was added to the HTRF plate. • 7. When the incubation was over, 10 μL of the reaction mixture was transferred to the HTRF assay plate and incubated on a laboratory shaker for 30 min at room temperature. • 8. The reading was taken in Pherastar (ext 337 nm, Em 665 & 620 nm). • 9. The results were analyzed using Graphpad prism after calculation of the z factor, signal window and % inhibition to get the IC50.

[4] = biological target: EGFR (A767_dupASV) expressing Ba/F3 stable cell line (Homo sapiens, UniProt P00533, DUP767-769, cells depend on it); assay: Cellular proliferation (Alamar Blue) assay, EGFR A767_dupASV Ba/F3; type: cell-based; conditions: EGFR A767_dupASV Ba/F3, 72 hr, read-out: A767 IC50
In short: (§1)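 Viability is measured by Alamar Blue conversion over 3 h, read as fluorescence at 540/590 nm. Cells are treated for 72 h with compound spanning 10–0.0005 μM final in 3-fold dilutions, after overnight attachment; Ba/F3 cells go in at 15,000 per well in RPMI with 10% FBS.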

[5] = biological target: EGFR(D770_N771insSVD) expressing Ba/F3 stable cell line (Homo sapiens, UniProt P00533, DUP768-770, cells depend on it); assay: Cellular proliferation (Alamar Blue) assay, EGFR D770_N771insSVD Ba/F3; type: cell-based; conditions: EGFR D770_N771insSVD Ba/F3, 72 hr, read-out: D770 IC50
In short: as §1

[6] = biological target: HER2 (A775_G776insYVMA) expressing Ba/F3 stable cell line (Homo sapiens, UniProt P04626, DUP772-775, cells depend on it); assay: Cellular proliferation (Alamar Blue) assay, HER2 YVMA Ba/F3; type: cell-based; conditions: HER2 A775_G776insYVMA Ba/F3, 72 hr, read-out: YVMA IC50
In short: as §1

Chain of EGFR(D770_N771insSVD) expressing Ba/F3 stable cell line (P00533 with tags, fused parts or gaps DUP768-770): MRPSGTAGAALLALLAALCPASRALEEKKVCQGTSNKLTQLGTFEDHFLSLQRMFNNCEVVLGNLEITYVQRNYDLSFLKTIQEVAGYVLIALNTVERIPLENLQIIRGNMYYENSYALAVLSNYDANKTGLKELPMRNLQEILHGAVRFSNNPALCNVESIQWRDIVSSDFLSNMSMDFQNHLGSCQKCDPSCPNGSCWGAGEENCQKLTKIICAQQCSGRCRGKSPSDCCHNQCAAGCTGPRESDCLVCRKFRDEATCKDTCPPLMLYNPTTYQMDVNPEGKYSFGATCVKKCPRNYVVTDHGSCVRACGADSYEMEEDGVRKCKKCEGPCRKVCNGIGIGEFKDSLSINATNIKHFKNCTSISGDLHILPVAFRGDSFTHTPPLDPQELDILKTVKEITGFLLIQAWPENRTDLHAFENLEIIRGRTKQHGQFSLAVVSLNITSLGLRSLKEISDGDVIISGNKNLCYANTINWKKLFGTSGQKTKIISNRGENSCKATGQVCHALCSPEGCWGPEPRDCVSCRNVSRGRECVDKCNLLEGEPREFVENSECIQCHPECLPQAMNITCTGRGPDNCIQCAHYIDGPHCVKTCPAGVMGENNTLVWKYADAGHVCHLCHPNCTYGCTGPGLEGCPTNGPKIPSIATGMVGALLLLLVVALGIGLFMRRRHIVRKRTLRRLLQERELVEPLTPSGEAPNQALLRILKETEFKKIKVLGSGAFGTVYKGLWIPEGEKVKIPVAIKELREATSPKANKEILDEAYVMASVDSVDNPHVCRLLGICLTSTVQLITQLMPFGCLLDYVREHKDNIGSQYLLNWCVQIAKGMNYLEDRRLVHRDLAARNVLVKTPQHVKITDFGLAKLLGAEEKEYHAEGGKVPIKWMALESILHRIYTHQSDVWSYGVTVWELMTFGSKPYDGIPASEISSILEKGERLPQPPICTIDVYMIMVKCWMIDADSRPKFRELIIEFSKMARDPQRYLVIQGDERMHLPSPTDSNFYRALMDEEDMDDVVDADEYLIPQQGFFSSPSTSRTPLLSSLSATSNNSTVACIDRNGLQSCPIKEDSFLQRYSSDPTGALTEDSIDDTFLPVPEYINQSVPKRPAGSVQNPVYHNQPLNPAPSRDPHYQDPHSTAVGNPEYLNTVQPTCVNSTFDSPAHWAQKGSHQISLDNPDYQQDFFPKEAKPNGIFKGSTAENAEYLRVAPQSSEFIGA
T1 sequence (P00533 25-1210 T790M/L858R): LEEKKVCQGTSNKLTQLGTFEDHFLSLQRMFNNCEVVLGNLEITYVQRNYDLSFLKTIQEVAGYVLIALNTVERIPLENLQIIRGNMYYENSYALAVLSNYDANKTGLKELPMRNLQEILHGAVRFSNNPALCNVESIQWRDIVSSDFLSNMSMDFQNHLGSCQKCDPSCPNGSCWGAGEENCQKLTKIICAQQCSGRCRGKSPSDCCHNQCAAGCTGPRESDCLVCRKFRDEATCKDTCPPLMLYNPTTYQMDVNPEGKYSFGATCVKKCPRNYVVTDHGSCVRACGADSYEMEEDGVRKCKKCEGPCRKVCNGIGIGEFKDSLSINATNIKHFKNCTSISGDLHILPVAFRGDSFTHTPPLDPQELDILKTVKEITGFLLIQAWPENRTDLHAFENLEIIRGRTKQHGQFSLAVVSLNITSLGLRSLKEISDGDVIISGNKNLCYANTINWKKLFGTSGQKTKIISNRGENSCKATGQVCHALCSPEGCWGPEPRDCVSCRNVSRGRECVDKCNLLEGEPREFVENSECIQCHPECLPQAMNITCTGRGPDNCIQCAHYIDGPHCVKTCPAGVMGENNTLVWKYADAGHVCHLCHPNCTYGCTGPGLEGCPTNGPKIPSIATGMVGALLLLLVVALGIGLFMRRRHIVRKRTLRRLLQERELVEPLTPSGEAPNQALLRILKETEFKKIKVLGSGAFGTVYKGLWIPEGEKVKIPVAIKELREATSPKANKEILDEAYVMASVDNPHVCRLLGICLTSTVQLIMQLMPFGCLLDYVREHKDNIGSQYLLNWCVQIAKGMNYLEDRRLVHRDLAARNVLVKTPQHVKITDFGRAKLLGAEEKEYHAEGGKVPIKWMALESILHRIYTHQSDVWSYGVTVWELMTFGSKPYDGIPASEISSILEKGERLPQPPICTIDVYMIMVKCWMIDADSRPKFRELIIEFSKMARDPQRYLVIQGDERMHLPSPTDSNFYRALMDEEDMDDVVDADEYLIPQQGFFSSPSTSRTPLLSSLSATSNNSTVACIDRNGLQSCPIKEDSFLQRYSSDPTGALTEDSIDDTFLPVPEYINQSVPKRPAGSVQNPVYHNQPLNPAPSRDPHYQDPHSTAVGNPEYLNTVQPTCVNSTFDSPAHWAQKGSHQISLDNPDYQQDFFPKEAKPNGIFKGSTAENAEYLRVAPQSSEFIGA
Chain of EGFR (A767_dupASV) expressing Ba/F3 stable cell line (P00533 with tags, fused parts or gaps DUP767-769): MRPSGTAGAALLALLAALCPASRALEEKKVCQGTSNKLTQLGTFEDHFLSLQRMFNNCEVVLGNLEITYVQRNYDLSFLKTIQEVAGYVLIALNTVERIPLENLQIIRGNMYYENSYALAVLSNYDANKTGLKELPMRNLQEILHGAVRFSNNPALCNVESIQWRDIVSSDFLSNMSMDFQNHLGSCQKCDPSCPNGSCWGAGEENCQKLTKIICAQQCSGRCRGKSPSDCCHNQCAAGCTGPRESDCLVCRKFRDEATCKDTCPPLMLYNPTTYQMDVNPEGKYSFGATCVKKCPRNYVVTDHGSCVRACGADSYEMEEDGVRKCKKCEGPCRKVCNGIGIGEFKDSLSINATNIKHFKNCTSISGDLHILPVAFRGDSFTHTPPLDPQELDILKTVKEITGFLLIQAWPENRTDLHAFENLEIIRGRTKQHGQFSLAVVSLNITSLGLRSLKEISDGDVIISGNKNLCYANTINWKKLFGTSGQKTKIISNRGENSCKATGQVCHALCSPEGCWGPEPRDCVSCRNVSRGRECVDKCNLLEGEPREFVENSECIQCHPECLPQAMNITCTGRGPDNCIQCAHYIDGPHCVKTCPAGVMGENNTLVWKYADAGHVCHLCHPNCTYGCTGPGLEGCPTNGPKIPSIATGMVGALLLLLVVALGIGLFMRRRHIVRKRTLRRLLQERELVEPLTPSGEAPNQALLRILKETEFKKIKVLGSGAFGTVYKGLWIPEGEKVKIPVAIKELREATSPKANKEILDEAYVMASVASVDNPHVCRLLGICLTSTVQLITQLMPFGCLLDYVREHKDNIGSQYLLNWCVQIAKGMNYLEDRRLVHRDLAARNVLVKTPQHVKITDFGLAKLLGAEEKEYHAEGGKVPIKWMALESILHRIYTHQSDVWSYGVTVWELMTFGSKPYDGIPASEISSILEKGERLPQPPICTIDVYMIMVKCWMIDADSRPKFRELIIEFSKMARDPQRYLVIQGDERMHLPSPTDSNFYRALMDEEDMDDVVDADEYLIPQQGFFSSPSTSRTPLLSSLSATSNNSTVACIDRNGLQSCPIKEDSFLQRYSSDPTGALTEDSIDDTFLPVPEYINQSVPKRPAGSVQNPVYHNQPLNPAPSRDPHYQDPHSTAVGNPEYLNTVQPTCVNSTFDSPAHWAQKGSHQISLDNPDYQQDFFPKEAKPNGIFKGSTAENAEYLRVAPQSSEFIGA
Chain of HER2 (A775_G776insYVMA) expressing Ba/F3 stable cell line (P04626 with tags, fused parts or gaps DUP772-775): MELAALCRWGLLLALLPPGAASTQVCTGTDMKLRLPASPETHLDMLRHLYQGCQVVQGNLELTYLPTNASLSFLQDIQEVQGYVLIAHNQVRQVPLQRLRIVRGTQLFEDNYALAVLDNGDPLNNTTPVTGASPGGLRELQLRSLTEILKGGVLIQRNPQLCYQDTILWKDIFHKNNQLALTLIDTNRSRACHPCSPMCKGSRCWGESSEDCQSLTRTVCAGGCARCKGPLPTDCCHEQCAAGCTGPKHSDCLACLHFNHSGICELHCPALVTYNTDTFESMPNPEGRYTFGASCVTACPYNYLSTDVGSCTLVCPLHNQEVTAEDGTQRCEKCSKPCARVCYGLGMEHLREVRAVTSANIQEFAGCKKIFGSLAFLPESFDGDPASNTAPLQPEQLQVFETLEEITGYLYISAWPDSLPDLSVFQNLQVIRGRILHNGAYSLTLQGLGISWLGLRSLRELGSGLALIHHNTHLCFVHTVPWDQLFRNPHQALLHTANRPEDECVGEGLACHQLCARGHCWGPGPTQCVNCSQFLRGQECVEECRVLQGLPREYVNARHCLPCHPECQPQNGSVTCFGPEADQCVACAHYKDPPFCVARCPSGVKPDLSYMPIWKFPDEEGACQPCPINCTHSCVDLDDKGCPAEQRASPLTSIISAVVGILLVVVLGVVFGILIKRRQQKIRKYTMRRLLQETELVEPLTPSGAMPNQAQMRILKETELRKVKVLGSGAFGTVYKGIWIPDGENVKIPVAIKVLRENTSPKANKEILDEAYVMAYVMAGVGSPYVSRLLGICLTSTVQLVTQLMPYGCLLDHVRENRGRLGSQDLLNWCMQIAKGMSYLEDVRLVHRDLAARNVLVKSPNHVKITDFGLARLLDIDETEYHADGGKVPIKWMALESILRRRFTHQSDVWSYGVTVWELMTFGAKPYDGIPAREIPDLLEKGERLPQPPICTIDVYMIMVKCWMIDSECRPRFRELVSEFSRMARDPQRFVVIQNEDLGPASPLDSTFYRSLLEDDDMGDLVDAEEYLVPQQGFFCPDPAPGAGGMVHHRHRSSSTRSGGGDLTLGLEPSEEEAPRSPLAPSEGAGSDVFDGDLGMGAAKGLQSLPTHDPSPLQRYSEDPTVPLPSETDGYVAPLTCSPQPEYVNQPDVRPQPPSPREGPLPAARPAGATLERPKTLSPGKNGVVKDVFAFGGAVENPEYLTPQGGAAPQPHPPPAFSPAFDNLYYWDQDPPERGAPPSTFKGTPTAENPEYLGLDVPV

Q: Which EC50 [1] does the source give for `CN(C)C/C=C/C(=O)Nc1cccc(N2C(=O)N(Cc3ccccc3)Cc3cnc(Nc4cnn(CC(F)(F)F)c4)nc32)c1` [Compound 12, (E)-N-(3-(3-benzyl-2-oxo-7-((1-(2,2,2-trifluoroethyl)-1H-pyrazol-4-yl)amino)-3,4-dihydropyrimido[4,5-d]pyrimidin-1(2H)-yl)phenyl)-4-(dimethylamino)but-2-enamide] here?
A: Its EC50 is 6.6 nM.

Q: What about the IC50 [2] of the same compound?
A: The IC50 was 1240 nM.

Q: What about the IC50 [3] of the same compound?
A: Its IC50 is 3 nM.

Q: What about the GI50 [4] of the same compound?
A: The GI50 was 106 nM.

Q: And the GI50 [5]?
A: The GI50 was 134 nM.

Q: What does the source list for `Cc1cnc(Nc2ncc3c(n2)N(c2cccc(NC(=O)/C=C/CN(C)C)c2)C(=O)N(Cc2ccccc2)C3)s1` [Compound 19, (E)-N-(3-(3-benzyl-7-((5-methylthiazol-2-yl)amino)-2-oxo-3,4-dihydropyrimido[4,5-d]pyrimidin-1(2H)-yl)phenyl)-4-(dimethylamino)but-2-enamide]?
A: EC50 [1]: 16 nM; IC50 [3]: 6 nM

Q: For `C=CC(=O)Nc1cccc(N2C(=O)N(c3ccc(F)cc3)Cc3cnc(Nc4cnn(C)c4)nc32)c1` [Compound 17, N-(3-(3-(4-fluorophenyl)-7-((1-methyl-1H-pyrazol-4-yl)amino)-2-oxo-3,4-dihydropyrimido[4,5-d]pyrimidin-1(2H)-yl)phenyl)acrylamide], which EC50 [1] is on record?
A: The EC50 was 0.7 nM.

Q: What about the IC50 [3] of the same compound?
A: The IC50 was 0.5 nM.

Q: Which results are given for `CN(C)C/C=C/C(=O)Nc1cccc(N2C(=S)N(c3ccccc3)Cc3cnc(Nc4cn(C)nc4Cl)nc32)c1` [Compound 51, (E)-N-(3-(7-((3-chloro-1-methyl-1H-pyrazol-4-yl)amino)-3-phenyl-2-thioxo-3,4-dihydropyrimido[4,5-d]pyrimidin-1(2H)-yl)phenyl)-4-(dimethylamino)but-2-enamide]?
A: EC50 [1]: 9.8 nM; IC50 [3]: 8 nM

Q: With `C=CC(=O)Nc1cccc(N2C(=O)N(Cc3ccccc3)Cc3cnc(Nc4cnn(C5CC5)c4)nc32)c1` [Compound 5, N-(3-(3-benzyl-7-((1-cyclopropyl-1H-pyrazol-4-yl)amino)-2-oxo-3,4-dihydropyrimido[4,5-d]pyrimidin-1(2H)-yl)phenyl)acrylamide] as the compound, how does the EC50 [1] read?
A: Its EC50 is 5.7 nM.

Q: And the IC50 [3]?
A: The IC50 was 1 nM.

Q: Which GI50 [6] does the source give for `C=CC(=O)Nc1ccc(F)c(N2C(=O)N(Cc3ccccc3)Cc3cnc(Nc4cn(C)nc4Cl)nc32)c1` [Compound 81, N-(3-(3-benzyl-7-((3-chloro-1-methyl-1H-pyrazol-4-yl)amino)-2-oxo-3,4-dihydropyrimido[4,5-d]pyrimidin-1(2H)-yl)-4-fluorophenyl)acrylamide] here?
A: The GI50 was 13 nM.

Q: What about the IC50 [2] of the same compound?
A: Its IC50 is at least 10000 nM.

Q: What about the GI50 [4] of the same compound?
A: The GI50 was 27 nM.

Q: And the GI50 [5]?
A: Its GI50 is 35 nM.

Q: What does the source list for `CN(C)C/C=C/C(=O)Nc1cccc(N2C(=O)N(Cc3ccccc3)Cc3cnc(Nc4ccc(N5CCN(C)CC5)nc4)nc32)c1` [Compound 66, (E)-N-(3-(3-benzyl-7-((6-(4-methylpiperazin-1-yl)pyridin-3-yl)amino)-2-oxo-3,4-dihydropyrimido[4,5-d]pyrimidin-1(2H)-yl)phenyl)-4-(dimethylamino)but-2-enamide]?
A: GI50 [6]: 1760 nM; IC50 [2]: ≥ 10000 nM; GI50 [4]: 3280 nM; GI50 [5]: 3190 nM

Q: Which results are given for `CN(C)C/C=C/C(=O)Nc1cccc(N2C(=O)N(c3ccccc3)Cc3cnc(Nc4cnn(C5CCC(O)CC5)c4)nc32)c1` (stereo not drawn) [Compound 107, (E)-4-(dimethylamino)-N-(3-(7-((1-(4-hydroxycyclohexyl)-1H-pyrazol-4-yl)amino)-2-oxo-3-phenyl-3,4-dihydropyrimido[4,5-d]pyrimidin-1(2H)-yl)phenyl)but-2-enamide]?
A: GI50 [6]: ≥ 10000 nM; IC50 [2]: ≥ 10000 nM; GI50 [4]: ≥ 10000 nM; GI50 [5]: ≥ 10000 nM

Q: Which GI50 [6] does the source give for `C=CC(=O)Nc1cccc(N2C(=O)N(c3ccccc3)Cc3cnc(Nc4cccc5c4CCN5C4CCN(C)CC4)nc32)c1` [Compound 118, N-(3-(7-((1-(1-methylpiperidin-4-yl)indolin-4-yl)amino)-2-oxo-3-phenyl-3,4-dihydropyrimido[4,5-d]pyrimidin-1(2H)-yl)phenyl)acrylamide] here?
A: Its GI50 is 103 nM.

Q: And the IC50 [2]?
A: The IC50 was at least 10000 nM.

Q: What about the GI50 [4] of the same compound?
A: Its GI50 is 32 nM.

Q: What about the GI50 [5] of the same compound?
A: Its GI50 is 110 nM.

Q: Which GI50 [6] does the source give for `Cn1cc(Nc2ncc3c(n2)N(c2cccc(NC(=O)/C=C/CF)c2)C(=O)N(c2ccccc2)C3)c(Cl)n1` [Compound 117, (E)-N-(3-(7-((3-chloro-1-methyl-1H-pyrazol-4-yl)amino)-2-oxo-3-phenyl-3,4-dihydropyrimido[4,5-d]pyrimidin-1(2H)-yl)phenyl)-4-fluorobut-2-enamide] here?
A: The GI50 was 75 nM.

Q: And the IC50 [2]?
A: Its IC50 is at least 10000 nM.

Q: What about the GI50 [4] of the same compound?
A: The GI50 was 35 nM.

Q: What about the GI50 [5] of the same compound?
A: The GI50 was 50 nM.

Q: How did the EC50 [1] turn out when `CN(C)C/C=C/C(=O)Nc1cccc(N2C(=O)N(Cc3ccccc3)Cc3cnc(Nc4cnn(C5CC5)c4)nc32)c1` [Compound 7, (E)-N-(3-(3-benzyl-7-((1-cyclopropyl-1H-pyrazol-4-yl)amino)-2-oxo-3,4-dihydropyrimido[4,5-d]pyrimidin-1(2H)-yl)phenyl)-4-(dimethylamino)but-2-enamide] was run?
A: Its EC50 is 9.3 nM.

Q: What about the IC50 [3] of the same compound?
A: Its IC50 is 6 nM.

Q: With `C=CC(=O)Nc1cccc(N2C(=O)N(c3ccccc3)Cc3cnc(Nc4cn(C5CCC(O)CC5)nc4Cl)nc32)c1` (stereo not drawn) [Compound 129, N-(3-(7-((3-chloro-1-(4-hydroxycyclohexyl)-1H-pyrazol-4-yl)amino)-2-oxo-3-phenyl-3,4-dihydropyrimido[4,5-d]pyrimidin-1(2H)-yl)phenyl)acrylamide trifluoroacetate salt] as the compound, how does the GI50 [6] read?
A: The GI50 was 312 nM.

Q: And the IC50 [2]?
A: The IC50 was at least 10000 nM.

Q: What about the GI50 [4] of the same compound?
A: The GI50 was 157 nM.

Q: What about the GI50 [5] of the same compound?
A: Its GI50 is 333 nM.

Q: `C=CC(=O)Nc1cccc(N2C(=O)N(c3ccccc3)Cc3cnc(Nc4cn(C)nc4Cl)nc32)c1` [Compound 116, N-(3-(7-((3-chloro-1-methyl-1H-pyrazol-4-yl)amino)-2-oxo-3-phenyl-3,4-dihydropyrimido[4,5-d]pyrimidin-1(2H)-yl)phenyl)acrylamide] was tested. Which GI50 [6] did it give?
A: The GI50 was 24 nM.

Q: And the IC50 [2]?
A: Its IC50 is at least 10000 nM.

Q: What about the GI50 [4] of the same compound?
A: Its GI50 is 1 nM.

Q: And the GI50 [5]?
A: Its GI50 is 7 nM.

Q: What does the source list for `CN(C)C/C=C/C(=O)Nc1cccc(N2C(=O)N(c3ccccc3)Cc3cnc(Nc4ccc(N5CCN(C)CC5)nc4)nc32)c1` [Compound 109, (E)-4-(dimethylamino)-N-(3-(7-((6-(4-methylpiperazin-1-yl)pyridin-3-yl)amino)-2-oxo-3-phenyl-3,4-dihydropyrimido[4,5-d]pyrimidin-1(2H)-yl)phenyl)but-2-enamide]?
A: GI50 [6]: 3300 nM; IC50 [2]: ≥ 10000 nM; GI50 [4]: 2320 nM; GI50 [5]: 6030 nM

Q: With `CN(C)C1CCN(C/C=C/C(=O)Nc2cccc(N3C(=O)N(c4ccccc4)Cc4cnc(Nc5cn(C)nc5Cl)nc43)c2)CC1` [Compound 124, (E)-N-(3-(7-((3-chloro-1-methyl-1H-pyrazol-4-yl)amino)-2-oxo-3-phenyl-3,4-dihydropyrimido[4,5-d]pyrimidin-1(2H)-yl)phenyl)-4-(4-(dimethylamino)piperidin-1-yl)but-2-enamide] as the compound, how does the GI50 [6] read?
A: Its GI50 is 1480 nM.

Q: And the IC50 [2]?
A: The IC50 was at least 10000 nM.

Q: What about the GI50 [4] of the same compound?
A: The GI50 was 2760 nM.

Q: And the GI50 [5]?
A: The GI50 was 4980 nM.
